Consider one compound from publication PMC4511751, “Rapid Expansion of Phenylthiocarbamide Non-Tasters among Japanese Macaques” (PLoS ONE, 2015).

One experiment has as its target T1, MfTAS2R38TR-K (Macaca fuscata, UniProt F1T2T8).
T1 construct: gene tas2r38
The settings on record: truncated allele Mf-K; pH 7.4.

A further experiment addresses T2, MmTAS2R38WT-a (Macaca mulatta, UniProt F1T2U6).
T2 construct: gene tas2r38; full-length TAS2R38, N-terminal first 45 residues of rat ssr3 and C-terminal last 8 residues of bovine rhodopsin as tags, pEAK10, HEK293T, co-expressed with chimeric G-alpha16gust44
T2 sequence (F1T2U6 1-333): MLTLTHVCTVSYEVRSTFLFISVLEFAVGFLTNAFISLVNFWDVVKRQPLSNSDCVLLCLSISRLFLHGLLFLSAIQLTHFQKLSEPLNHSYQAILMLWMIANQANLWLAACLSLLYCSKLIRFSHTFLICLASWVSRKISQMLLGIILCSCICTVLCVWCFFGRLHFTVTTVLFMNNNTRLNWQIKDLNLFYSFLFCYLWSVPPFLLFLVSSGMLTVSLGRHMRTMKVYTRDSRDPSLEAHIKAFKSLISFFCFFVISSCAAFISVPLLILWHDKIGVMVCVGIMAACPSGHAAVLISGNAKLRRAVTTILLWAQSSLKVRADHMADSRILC
In words: calcium imaging, fluo-4, FlexStation, HEK293T with G-alpha16gust44. The experiment is classed as cell-based.

SMILES strings stand for the structures.

T1 sequence (F1T2T8 1-237): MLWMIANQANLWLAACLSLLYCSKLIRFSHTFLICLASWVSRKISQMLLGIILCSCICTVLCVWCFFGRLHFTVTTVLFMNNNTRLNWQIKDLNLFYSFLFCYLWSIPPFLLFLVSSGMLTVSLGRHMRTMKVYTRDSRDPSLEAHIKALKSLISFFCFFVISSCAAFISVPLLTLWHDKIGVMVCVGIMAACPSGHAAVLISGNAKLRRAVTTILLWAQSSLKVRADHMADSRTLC

The EC50 is the concentration at which the effect is half-maximal. Consider `NC(=S)Nc1ccccc1` [phenylthiocarbamide], for which the “calcium imaging, fluo-4, FlexStation, HEK293T with G-alpha16gust44” value on MfTAS2R38TR-K is given as “failed to respond to PTC”. The EC50 at MmTAS2R38WT-a was found to be 560 nM.
